Source: ChEMBL document CHEMBL5150077, “Identification of TUL01101: A Novel Potent and Selective JAK1 Inhibitor for the Treatment of Rheumatoid Arthritis” (J Med Chem, 2022)
pIC50: −log10 of the molar value. Active and inactive are the calls of the source. The calls are words filed in the database; no cut-off is given here.

Assays:
[1] = Metabolic stability in human hepatocytes assessed as intrinsic clearance at 1 uM incubated for 90 mins by LC/MS/MS analysis; assay type: ADME, cell-based, Hepatocyte
Mus musculus [2] = assay: Antiarthritic activity in collagen-induced rheumatoid arthritis DBA/1 mouse model assessed as reduction in clinical score AUC at 15 mg/kg, po BID administered for 14 days starting from 7 days before immunization to 21 days after immunization and measured on day 41 post immunization; assay type: functional, organism-based; conditions: time 14.0 day
Mus musculus [3] = assay: Antiarthritic activity in collagen-induced rheumatoid arthritis DBA/1 mouse model assessed as reduction in incidence rate at 15 mg/kg, po BID administered for 14 days starting from 7 days before immunization to 21 days after immunization and measured post last dose; assay type: functional; set-up: scale not given: the % may be the effect or the level left; conditions: time 14 day
Cytochrome P450 2B6 = molecular target: T1, Cytochrome P450 2B6 (Homo sapiens, UniProt P20813); assay: Inhibition of CYP2B6 in human liver microsomes incubated in presence NADPH by LC-MS/MS analysis
T1 sequence (P20813 whole entry): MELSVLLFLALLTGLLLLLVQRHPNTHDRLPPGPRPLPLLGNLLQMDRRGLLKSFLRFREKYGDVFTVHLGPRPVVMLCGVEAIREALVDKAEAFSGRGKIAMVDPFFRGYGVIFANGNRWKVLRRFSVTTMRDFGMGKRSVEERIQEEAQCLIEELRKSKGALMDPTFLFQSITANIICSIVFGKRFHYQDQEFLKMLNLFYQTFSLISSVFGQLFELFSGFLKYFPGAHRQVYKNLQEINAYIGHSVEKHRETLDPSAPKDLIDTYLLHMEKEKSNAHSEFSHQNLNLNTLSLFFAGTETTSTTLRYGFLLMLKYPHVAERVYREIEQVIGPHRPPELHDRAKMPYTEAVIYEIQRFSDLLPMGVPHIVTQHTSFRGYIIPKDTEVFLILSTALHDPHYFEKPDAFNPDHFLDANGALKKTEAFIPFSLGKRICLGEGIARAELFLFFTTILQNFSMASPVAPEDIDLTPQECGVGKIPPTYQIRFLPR

[4] = Microsomal stability in human liver microsomes assessed as intrinsic clearance at 1 uM incubated for 60 mins in presence of NADPH regenerating system by LC-MS/MS analysis; assay type: ADME, Microsome; conditions: read-out: CLH
[5] = Metabolic stability in rat hepatocytes assessed as intrinsic clearance at 1 uM incubated for 90 mins by LC/MS/MS analysis; assay type: ADME, cell-based, Hepatocyte
[6] = Microsomal stability in mouse liver microsomes assessed as intrinsic clearance at 1 uM incubated for 60 mins in presence of NADPH regenerating system by LC-MS/MS analysis; assay type: ADME, Microsome; conditions: read-out: CLH
Cytochrome P450 2C9 = Cytochrome P450 2C9 (Homo sapiens, UniProt P11712); assay: Inhibition of CYP2C9 in human liver microsomes incubated in presence NADPH by LC-MS/MS analysis
Chain of Cytochrome P450 2C9 (P11712 whole entry): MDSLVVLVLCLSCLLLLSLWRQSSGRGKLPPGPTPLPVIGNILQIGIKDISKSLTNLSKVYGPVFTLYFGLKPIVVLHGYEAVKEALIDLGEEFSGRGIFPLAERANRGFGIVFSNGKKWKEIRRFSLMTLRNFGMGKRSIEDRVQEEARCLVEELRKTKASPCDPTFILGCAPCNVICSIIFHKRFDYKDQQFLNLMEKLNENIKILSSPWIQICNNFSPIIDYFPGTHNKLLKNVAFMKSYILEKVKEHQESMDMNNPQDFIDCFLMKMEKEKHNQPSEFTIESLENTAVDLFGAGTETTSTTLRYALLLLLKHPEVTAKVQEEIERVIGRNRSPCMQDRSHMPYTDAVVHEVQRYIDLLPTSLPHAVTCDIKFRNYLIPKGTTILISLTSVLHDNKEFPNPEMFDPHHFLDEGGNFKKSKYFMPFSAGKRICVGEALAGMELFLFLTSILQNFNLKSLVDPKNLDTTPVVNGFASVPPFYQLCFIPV

[7] = Apparent permeability across apical to basolateral side in human Caco-2 cells at 10 uM measured after 120 mins by LC-MS/MS analysis; conditions: for Papp A→B at 2 h, 10 µM: Caco-2
[8] = Plasma protein binding in rat assessed as unbound fraction at 2 uM incubated for 4 hrs by LC/MS/MS based balanced dialysis method
Cytochrome P450 1A2 = molecular target: T2, Cytochrome P450 1A2 (Homo sapiens, UniProt P05177); assay: Inhibition of CYP1A2 in human liver microsomes incubated in presence NADPH by LC-MS/MS analysis
T2 sequence (P05177 whole entry): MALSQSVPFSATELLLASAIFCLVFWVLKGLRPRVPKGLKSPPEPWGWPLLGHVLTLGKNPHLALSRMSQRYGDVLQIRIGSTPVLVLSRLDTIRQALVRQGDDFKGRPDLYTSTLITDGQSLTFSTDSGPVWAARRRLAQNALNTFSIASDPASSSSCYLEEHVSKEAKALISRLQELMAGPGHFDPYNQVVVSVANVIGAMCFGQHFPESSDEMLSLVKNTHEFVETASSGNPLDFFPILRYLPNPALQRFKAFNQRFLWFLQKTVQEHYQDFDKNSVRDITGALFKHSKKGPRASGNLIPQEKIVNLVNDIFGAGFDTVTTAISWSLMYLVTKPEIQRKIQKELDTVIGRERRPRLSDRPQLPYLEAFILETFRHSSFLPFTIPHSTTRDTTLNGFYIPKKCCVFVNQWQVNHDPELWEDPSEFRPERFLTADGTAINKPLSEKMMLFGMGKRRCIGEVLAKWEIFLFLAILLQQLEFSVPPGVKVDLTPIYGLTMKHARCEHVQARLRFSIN

[9] = Metabolic stability in mouse hepatocytes assessed as intrinsic clearance at 1 uM incubated for 90 mins by LC/MS/MS analysis; assay type: ADME, cell-based, Hepatocyte
[10] = Plasma protein binding in mouse assessed as unbound fraction at 2 uM incubated for 4 hrs by LC/MS/MS based balanced dialysis method
Cytochrome P450 2D6 = Cytochrome P450 2D6 (Homo sapiens, UniProt P10635); assay: Inhibition of CYP2D6 in human liver microsomes incubated in presence NADPH by LC-MS/MS analysis
Chain of Cytochrome P450 2D6 (P10635 whole entry): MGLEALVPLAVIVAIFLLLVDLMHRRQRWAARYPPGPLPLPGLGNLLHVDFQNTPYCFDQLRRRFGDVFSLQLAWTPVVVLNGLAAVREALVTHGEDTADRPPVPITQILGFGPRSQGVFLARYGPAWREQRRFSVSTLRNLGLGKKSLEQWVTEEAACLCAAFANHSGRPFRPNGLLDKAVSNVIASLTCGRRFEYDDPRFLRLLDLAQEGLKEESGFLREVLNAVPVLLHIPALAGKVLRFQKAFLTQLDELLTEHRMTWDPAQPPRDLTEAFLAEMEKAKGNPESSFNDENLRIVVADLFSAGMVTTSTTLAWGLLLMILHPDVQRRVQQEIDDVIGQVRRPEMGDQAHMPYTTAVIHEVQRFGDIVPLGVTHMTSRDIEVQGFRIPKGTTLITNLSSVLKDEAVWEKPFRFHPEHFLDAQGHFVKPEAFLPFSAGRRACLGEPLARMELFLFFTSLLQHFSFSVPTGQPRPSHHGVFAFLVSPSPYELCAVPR

[11] = Plasma protein binding in human assessed as unbound fraction at 2 uM incubated for 4 hrs by LC/MS/MS based balanced dialysis method
[12] = Microsomal stability in rat liver microsomes assessed as intrinsic clearance at 1 uM incubated for 60 mins in presence of NADPH regenerating system by LC-MS/MS analysis; assay type: ADME, Microsome; conditions: read-out: CLH
Cytochrome P450 2C19 = Cytochrome P450 2C19 (Homo sapiens, UniProt P33261); assay: Inhibition of CYP2C19 in human liver microsomes incubated in presence NADPH by LC-MS/MS analysis
Chain of Cytochrome P450 2C19 (P33261 whole entry): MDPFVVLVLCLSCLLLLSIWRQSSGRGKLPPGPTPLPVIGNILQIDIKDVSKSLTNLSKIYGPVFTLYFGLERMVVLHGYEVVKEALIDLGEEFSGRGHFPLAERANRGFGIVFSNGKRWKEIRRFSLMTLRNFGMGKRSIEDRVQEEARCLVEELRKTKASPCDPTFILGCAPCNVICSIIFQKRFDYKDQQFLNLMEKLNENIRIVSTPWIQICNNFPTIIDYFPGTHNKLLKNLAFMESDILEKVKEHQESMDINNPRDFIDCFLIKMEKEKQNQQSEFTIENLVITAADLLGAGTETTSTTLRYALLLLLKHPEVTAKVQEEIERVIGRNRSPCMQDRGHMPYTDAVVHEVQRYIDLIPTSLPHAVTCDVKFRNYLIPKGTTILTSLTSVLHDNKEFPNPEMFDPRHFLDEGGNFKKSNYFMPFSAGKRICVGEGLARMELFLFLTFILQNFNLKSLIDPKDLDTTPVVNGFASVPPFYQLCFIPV

[13] = Apparent permeability across basolateral to apical side in human Caco-2 cells at 10 uM measured after 120 mins by LC-MS/MS analysis
Cytochrome P450 2C8 = molecular target: T3, Cytochrome P450 2C8 (Homo sapiens, UniProt P10632); assay: Inhibition of CYP2C8 in human liver microsomes incubated in presence NADPH by LC-MS/MS analysis
T3 sequence (P10632 whole entry): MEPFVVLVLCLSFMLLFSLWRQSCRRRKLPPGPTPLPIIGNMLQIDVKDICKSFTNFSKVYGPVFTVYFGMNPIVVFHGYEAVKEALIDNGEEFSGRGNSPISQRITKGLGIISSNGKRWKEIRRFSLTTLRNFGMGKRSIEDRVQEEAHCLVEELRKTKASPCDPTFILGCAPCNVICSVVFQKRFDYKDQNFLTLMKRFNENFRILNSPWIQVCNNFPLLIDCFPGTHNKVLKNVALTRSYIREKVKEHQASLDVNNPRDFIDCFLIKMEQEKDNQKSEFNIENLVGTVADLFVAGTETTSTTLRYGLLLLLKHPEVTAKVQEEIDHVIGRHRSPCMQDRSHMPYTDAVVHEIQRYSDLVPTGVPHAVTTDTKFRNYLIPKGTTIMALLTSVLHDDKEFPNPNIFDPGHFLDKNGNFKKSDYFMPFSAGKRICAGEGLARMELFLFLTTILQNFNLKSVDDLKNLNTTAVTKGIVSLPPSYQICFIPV

Cytochrome P450 3A4 = Cytochrome P450 3A4 (Homo sapiens, UniProt P08684); assay: Inhibition of CYP3A4 in human liver microsomes incubated in presence NADPH by LC-MS/MS analysis
Chain of Cytochrome P450 3A4 (P08684 whole entry): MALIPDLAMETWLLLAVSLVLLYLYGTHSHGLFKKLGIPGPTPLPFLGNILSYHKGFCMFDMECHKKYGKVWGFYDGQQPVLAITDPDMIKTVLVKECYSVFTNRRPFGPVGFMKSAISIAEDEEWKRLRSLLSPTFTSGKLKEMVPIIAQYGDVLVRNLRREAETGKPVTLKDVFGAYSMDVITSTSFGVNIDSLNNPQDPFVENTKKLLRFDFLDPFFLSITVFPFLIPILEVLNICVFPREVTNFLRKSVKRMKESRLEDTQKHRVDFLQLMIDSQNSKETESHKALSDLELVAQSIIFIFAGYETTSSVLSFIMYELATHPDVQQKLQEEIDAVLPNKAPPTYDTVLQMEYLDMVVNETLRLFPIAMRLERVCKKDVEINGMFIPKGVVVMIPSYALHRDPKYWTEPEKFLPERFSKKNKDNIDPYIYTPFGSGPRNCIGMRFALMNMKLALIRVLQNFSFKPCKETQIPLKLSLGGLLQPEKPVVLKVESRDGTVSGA

Homo sapiens [14] = species on record: Homo sapiens; assay: Selectivity index, ratio of IC50 for inhibition of recombinant human TYK2 to IC50 for inhibition of recombinant human JAK1
[15] = Efflux ratio of apparent permeability from basolateral to apical side over apical to basolateral side in human Caco-2 cells at 10 uM incubated for 120 mins by LC-MS/MS analysis
Homo sapiens [16] = species on record: Homo sapiens; assay: Selectivity index, ratio of IC50 for inhibition of recombinant human JAK2 to IC50 for inhibition of recombinant human JAK1

Row | CLH [1] [µL/min/mg] | pIC50 (Cytochrome P450 2B6) | microsomal CLint at 1 µM [4] [µL/min/mg] | CLH [5] [µL/min/mg] | microsomal CLint at 1 µM [6] [µL/min/mg] | pIC50 (Cytochrome P450 2C9) | fraction unbound at 4 h, 2 µM [8] | pIC50 (Cytochrome P450 1A2) | CLH [9] [µL/min/mg] | fraction unbound at 4 h, 2 µM [10] | pIC50 (Cytochrome P450 2D6) | fraction unbound at 4 h, 2 µM [11] | microsomal CLint at 1 µM [12] [µL/min/mg] | pIC50 (Cytochrome P450 2C19) | Papp B→A at 2 h, 10 µM [13] [×10⁻⁶ cm/s] | pIC50 (Cytochrome P450 2C8) | Papp A→B at 2 h, 10 µM [7] [×10⁻⁶ cm/s] | pIC50 (Cytochrome P450 3A4) | Structure (SMILES) | further results
1 | < 6.4 | < 4.00 | < 9.6 | < 6.4 | < 9.6 | < 4.00 | 0.399 | 4.18 | 22.3 | 0.316 | < 4.00 | 0.518 | < 9.6 | 4.05 | 24.5 | < 4.00 | – | – | O=C(Nc1nc2cccc(-c3ccc(CN4CCS(=O)(=O)CC4)cc3)n2n1)C1CC1 [FILGOTINIB] | Activity (Mus musculus [2]): Active; Activity (Mus musculus [3]): 100%; Papp ([7]; caco-2, 2 h, 10 µM): 0.28 10^-6 cm/s
2 | < 6.4 | < 4.00 | < 9.6 | < 6.4 | < 9.6 | < 4.00 | 0.544 | < 4.00 | < 6.6 | 0.479 | < 4.00 | 0.515 | < 9.6 | < 4.00 | 20.4 | < 4.00 | 0.1 | < 4.00 | N#CCC(=O)N1CC2(CCC(c3cccc4nc(NC(=O)C5CC5)nn34)CC2)C1 | –
3 | < 6.4 | < 4.00 | < 9.6 | < 6.4 | 10.6 | < 4.00 | 0.196 | < 4.00 | 15.3 | 0.28 | < 4.00 | 0.306 | < 9.6 | < 4.00 | 28.6 | < 4.00 | 4.36 | < 4.00 | O=C(Nc1nc2cccc(C3CCC(NC(=O)C4(F)CC4)CC3)n2n1)C1CC1 (stereo not drawn) | Ratio IC50 (Homo sapiens [14]): 4.1; efflux ratio at 2 h, 10 µM [15]: 6.57; Ratio IC50 (Homo sapiens [16]): 11.6
